# From US20060094783A1 (Tava Pharmaceutical Industries, Ltd., priority 1990, published 2006)
# Where a name gives a salt, the structure may show the parent alone. Read-outs that look alike come from different tables or passages of the source.
# Tests used:
# MAO-A [1] = target: T1, MAO-A (Rattus norvegicus, UniProt P21396); assay: Rat brain MAO inhibition by propargylamines (Table IA), A form; format: biochemical; conditions: between the two epimers
# T1 construct: MAO activity determined in brain and liver; from tissue; host or cells: brain and liver of male Sprague-Dawley-derived rats
# T1 sequence (P21396 1-526): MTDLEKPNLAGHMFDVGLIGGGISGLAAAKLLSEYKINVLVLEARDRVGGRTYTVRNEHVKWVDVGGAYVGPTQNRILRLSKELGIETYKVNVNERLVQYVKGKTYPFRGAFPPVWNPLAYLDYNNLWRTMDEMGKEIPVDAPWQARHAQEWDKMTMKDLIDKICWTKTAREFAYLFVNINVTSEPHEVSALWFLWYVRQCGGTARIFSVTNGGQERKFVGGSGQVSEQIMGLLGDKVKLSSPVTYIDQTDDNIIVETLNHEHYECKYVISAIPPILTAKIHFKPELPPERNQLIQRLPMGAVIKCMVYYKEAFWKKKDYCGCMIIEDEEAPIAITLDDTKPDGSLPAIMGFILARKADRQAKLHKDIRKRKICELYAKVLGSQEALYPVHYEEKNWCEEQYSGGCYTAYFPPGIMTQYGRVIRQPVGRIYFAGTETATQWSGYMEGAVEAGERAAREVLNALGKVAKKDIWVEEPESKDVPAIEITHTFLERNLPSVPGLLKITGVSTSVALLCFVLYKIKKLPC
# [2] = test system: maximal electroshock seizures in mice; assay: Maximal electroshock test (MES test) in mice; format: in vivo, mouse; conditions: i.p.
# From the text: (§1) The MES test is a classical model to indicate efficacy for partial and generalized seizures in humans. The agents' mechanism of action is via their ability to prevent the spread of seizures. Some agents, however, that prevent seizure spread have the side effect of lowering seizure threshold. These agents therefore have both proconvulsive and anticonvulsive side effects.
# [3] = test system: maximal electroshock seizures in rats; assay: Maximal electroshock test (MES test) in rats; format: in vivo, rat; conditions: p.o., 50 mg/kg
# From the text: as §1
# rabbit jejunum = assay: Tyramine potentiation in isolated jejunum preparation
# Experimental: Peripheral effects of the hydrochloride salts of the enantiomers of PAI were determined in isolated rabbit or guinea-pig small intestine. These observations provide useful information on their relative peripheral side effects in humans. The first point of contact of the subject with an orally administered drug is the gastrointestinal tract where concentrations of the drug are much higher than after absorption and distribution. In the case of PAI hydrochloride (Mw=208), a 10 mg oral dose contained in a liquid volume of about 100 ml would be equivalent to a concentration of about 0.5 mM. In contrast, the therapeutic plasma concentration of (R)-PAI hydrochloride is in the nanomolar range.
# guinea-pig ileum [4] = assay: Antagonism of bethanechol-induced contractions of guinea pig ileum in presence of 400 μM PAI HCl enantiomer; conditions: 400 μM enantiomer
# guinea-pig ileum [5] = assay: Antagonism of histamine-induced contractions of guinea-pig ileum; conditions: histamine 40 nM
# guinea-pig ileum [6] = assay: Antagonism of bethanechol-induced (fixed dose) contractions of guinea-pig ileum; conditions: bethanechol 0.8 μM
# [7] = test system: MPTP-induced striatal DA and DOPAC depletions in mice; assay: Suppression of MPTP-induced dopaminergic toxicity (striatal DA and DOPAC); format: in vivo, mouse; conditions: PAI […] i.p., deprenyl 5 mg/kg i.p., 5 days
# MAO [8] = conditions: inhibiting oxidative deamination of tyramine, rat brain homogenate; cited from earlier work
# MAO [9] = conditions: rat liver homogenate; cited from earlier work
# MAO-A [10] = target: T1, MAO-A; assay: Inhibition of MAO activity in vivo, acute treatment, MAO-A; conditions: for IC-50 MAO-A: rat
# MAO-B [11] = target: T2, MAO-B (Rattus norvegicus, UniProt P19643); conditions: rat whole brain, 1 mg/kg i.p. single dose
# T2 sequence (P19643 1-520): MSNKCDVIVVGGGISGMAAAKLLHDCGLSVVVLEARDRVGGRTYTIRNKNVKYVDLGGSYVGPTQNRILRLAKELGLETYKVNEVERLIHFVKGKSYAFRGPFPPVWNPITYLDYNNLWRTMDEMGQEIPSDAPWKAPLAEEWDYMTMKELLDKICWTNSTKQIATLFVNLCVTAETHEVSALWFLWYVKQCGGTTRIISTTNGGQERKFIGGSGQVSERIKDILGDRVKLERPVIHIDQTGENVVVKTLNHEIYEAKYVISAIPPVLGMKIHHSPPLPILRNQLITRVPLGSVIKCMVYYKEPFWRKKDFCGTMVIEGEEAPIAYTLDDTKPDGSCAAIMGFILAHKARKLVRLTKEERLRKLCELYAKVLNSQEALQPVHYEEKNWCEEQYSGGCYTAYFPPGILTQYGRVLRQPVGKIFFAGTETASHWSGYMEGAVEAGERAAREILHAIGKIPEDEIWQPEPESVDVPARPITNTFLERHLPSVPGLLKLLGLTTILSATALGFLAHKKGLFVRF
# Experimental: Activity of MAO-B was determined in whole brain tissues as described hereinabove.
# [12] = test system: tyramine pressor response in conscious rats; assay: Potentiation of tyramine pressor effect in conscious rats; format: in vivo, rat
# Experimental: The left carotid artery and jugular vein were cannulated with fine polytene tubing (artery) or fine silicone rubber tubing connected to polyethylene tubing (vein), the distal end of which was brought under the skin to an anchor point behind the neck. The tubing was filled with heparinized saline solution, and plugged with a fine steel rod. The animals were treated with 2. mg chloramphenicol by intramuscular injection and allowed to recover from the operation overnight. The following day, the rats were placed in a high-walled container permitting free movement. […] Following an equilibration period of 30 to 40 minutes, tyramine injections (50 or 100 μg) were given, and blood pressure-responses recorded. An interval of at least 15 minutes was maintained between injections after return of blood pressure to control values. Control pressor responses were established, then one of the drugs was injected intraperitoneally, and tyramine responses were repeated over the next 4 hours. The area under the blood pressure response curve was estimated, and the ratio of this area after treatment to before treatment and to 1 to 3 hours after injection of the compounds, was determined using the average of 3 to 4 values obtained in the control period.
# [13] = test system: passive avoidance response in young rats; assay: Passive avoidance test in young rats (memory); format: in vivo, rat
# From the text: The effect of R(+)-PAI and S(−)-PAI on the improvement or restoration of memory was investigated in the passive avoidance test. If the drug is effective, it increases the latency of response to enter a dark compartment or chamber where an electroshock has been experienced earlier by the rat being tested. The latency of the maximal response is 300 seconds.
# MAO-B [14] = target: T2, MAO-B; assay: Inhibition of MAO activity in vitro, rat brain homogenate, PEA substrate; format: biochemical; parameters: in a rat brain preparation of MAO; host or cells: rat brain preparation
# Experimental: The MAO enzyme source was a homogenate of rat brain in 0.3M sucrose, which was centrifuged at 600 g for 15 minutes. […] Substrate concentrations used were 50 uM (PEA) and 1 mM (5-HT). In the case of PEA, enzyme concentration was chosen so that not more than 10% of the substrate was metabolized during the course of the reaction. […] The column was washed with 1.5 ml water, the eluates pooled and the radioactive content determined by liquid scintillation spectrometry. Since the amine substrates are totally retained on the column, radioactivity in the eluate indicates the production of neutral and acidic metabolites formed as a result of MAO activity. Activity of MAO in the sample was expressed as a percentage of control activity in the absence of inhibitors after subtraction of appropriate blank values. The activity determined using PEA as substrate is referred to as MAO-B, and that determined using 5-HT as MAO-A.
# MAO-B [15] = target: T2, MAO-B; assay: Inhibition of MAO activity in vivo, acute treatment, MAO-B; parameters: in a rat brain preparation of MAO; host or cells: rat brain preparation; conditions: for IC-50 MAO-B: I.P., 1 h after dose
# [16] = test system: Metrazol seizure threshold in mice; conditions: Kupferberg 1989; cited from earlier work
# [17] = pretreatment 1 h before MPTP 30 mg/kg s.c.
compound,measurement,setting,value
"C#CCNC1CCCc2ccccc21 (racemic) [Example 1-PAT, N-propargyl-1-aminotetralin]",Relative potency A (+/− or R/S),MAO-A [1],4
"C#CCN[C@H]1CCc2ccccc21 [(S)-PAI HCl, S-(−)-N-Propargyl-1-aminoindan hydrochloride]",ED50 anticonvulsant activity,[2],57 mg/kg
same,animals protected from seizures,[3],Four out of four
same,Percent relaxation,"rabbit jejunum; PAI HCl enantiomer alone, 0.2-4.0 μM",0
same,Percent relaxation,rabbit jejunum; tyramine 40 μM after 0.2 μM PAI HCl enantiomer,0
same,Percent relaxation,rabbit jejunum; tyramine 40 μM after 2 μM PAI HCl enantiomer,35
same,Percent relaxation,rabbit jejunum; tyramine 40 μM after 40 μM PAI HCl enantiomer,33-50
same,gram-tension,guinea-pig ileum [4]; bethanechol 0.8 μM,0 gram-tension
same,gram-tension,guinea-pig ileum [4]; bethanechol 2 μM,0 gram-tension
same,gram-tension,guinea-pig ileum [4]; bethanechol 4 μM,0 gram-tension
same,gram-tension,guinea-pig ileum [4]; bethanechol 8 μM,0.6 gram-tension
same,gram-tension,guinea-pig ileum [4]; bethanechol 40 μM,1.7 gram-tension
same,Percent relaxation,guinea-pig ileum [5]; PAI concentration 2 μM,11
same,Percent relaxation,guinea-pig ileum [5]; PAI concentration 4 μM,15
same,Percent relaxation,guinea-pig ileum [5]; PAI concentration 10 μM,30
same,Percent relaxation,guinea-pig ileum [5]; PAI concentration 20 μM,20
same,Percent relaxation,guinea-pig ileum [5]; PAI concentration 30 μM,33
same,Percent relaxation,guinea-pig ileum [5]; PAI concentration 40 μM,36
same,Percent relaxation,guinea-pig ileum [5]; PAI concentration 100 μM,71
same,Percent relaxation,guinea-pig ileum [5]; PAI concentration 200 μM,90
same,Percent relaxation,guinea-pig ileum [5]; PAI concentration 400 μM,98
same,Percent relaxation,guinea-pig ileum [5]; PAI concentration 1000 μM,100
same,Percent relaxation,guinea-pig ileum [6]; PAI concentration 20 μM,40-50
same,Percent relaxation,guinea-pig ileum [6]; PAI concentration 60 μM,60-70
same,Percent relaxation,guinea-pig ileum [6]; PAI concentration 100 μM,100
same,Percent relaxation,guinea-pig ileum [6]; PAI concentration 300 μM,100
"C#CCN(C)[C@H](C)Cc1ccccc1 [DEPRENYL R, reference compound]",striatal DA,[7]; drug alone,170.6 ± 7.1 ng/mg protein
same,striatal DOPAC,[7]; drug alone,5.6 ± 0.3 ng/mg protein
same,striatal DA,[7]; [17],197.0 ± 8.0 ng/mg protein
same,striatal DOPAC,[7]; [17],6.4 ± 0.5 ng/mg protein
same,times more potent than the S-(+) enantiomer,MAO [8],500 times
same,times as potent as the S enantiomer,MAO [9],15 times
"C#CCN(C)C1CCCc2ccccc21 (stereo not drawn) [Example 2-MPAI, N-Methyl-N-propargyl-1-aminotetralin]",Relative potency A (+/− or R/S),MAO-A [1],3
"C#CCN[C@@H]1CCc2ccccc21 [R(+)PAI, R(+)-N-propargyl-1-aminoindan]",inhibition of MAO-A,"MAO-A [10]; rat brain, 0.5 mg/kg oral",no detectable inhibition
same,IC-50 MAO-A,"MAO-A [10]; I.P., brain, 1 h after dose",1.2 mg/kg
same,IC-50 MAO-A,"MAO-A [10]; I.P., liver, 1 h after dose",5 mg/kg
same,IC-50 MAO-A,"MAO-A [10]; P.O., brain, 2 h after dose",>5 mg/kg
same,IC-50 MAO-A,"MAO-A [10]; P.O., liver, 2 h after dose",>5 mg/kg
same,time of maximal inhibition of MAO-B after injection,MAO-B [11],6 h
same,potentiation of tyramine pressor response (in words),[12]; 1 mg/kg,no significant potentiation
same,potentiation of tyramine pressor response (in words),[12]; 5 mg/kg,significant potentiation
same,striatal DOPAC,[7]; [17],6.0 ± 0.3 ng/mg protein
same,percent increase of latency After Electroshock vs corresponding group,"[13]; Protocol A, anoxia-lesioned rats",19%
same,percent increase of latency After Electroshock vs corresponding group,"[13]; Protocol A, control rats",+9%
same,percent increase of latency After Electroshock vs corresponding group,"[13]; Protocol B, anoxia-lesioned rats",+15%
same,percent increase of latency After Electroshock vs corresponding group,"[13]; Protocol B, control rats",+23%
same,times more active for inhibition of MAO-B than MAO-A,MAO-B [14],29 times
same,times more active than S(−)PAI as inhibitor of MAO-B,MAO-B [14],"~7,000 times"
same,times more active than S(−)PAI as inhibitor of MAO-B,MAO-B [14]; listed as R(+)-PAI,about 7000 times
same,inhibition of MAO-B in brain and liver,MAO-B [15]; 1 mg/kg,complete inhibition
same,IC-50 MAO-B,MAO-B [15]; brain,0.07 mg/kg
same,IC-50 MAO-B,MAO-B [15]; liver,0.06 mg/kg
NC(=O)N1c2ccccc2C=Cc2ccccc21 [carbamazepine],effect on time to first focal seizure and onset of clonus (proconvulsive activity),[16],do not show this effect
O=C1NC(=O)C(c2ccccc2)(c2ccccc2)N1 [phenytoin],effect on time to first focal seizure and onset of clonus (proconvulsive activity),[16],do not show this effect
